Assay results: patent publication US6737383B1, “Herbicidal oxadiazolidines” (priority 1999, dated 2004)

Experiments:
wheat = assay: Test B pre/postemergence wheat; format: in vivo, Triticum aestivum
How it was run: (§1)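 Test chemicals in a non-phytotoxic solvent mixture with surfactant were sprayed preemergence onto planted seeds and postemergence onto plants 2 to 18 cm tall (1- to 4-leaf stage). After twelve to sixteen days in a greenhouse, injury was visually rated against untreated controls from 0 (no effect) to 10 (complete control).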

bamyardgrass = assay: Test B flood test barnyardgrass; format: in vivo, Echinochloa crus-galli
How it was run: (§2)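 Read-out is a visual response score from 0 (no effect) to 10 (complete control), assigned by comparison with untreated controls. Treatment was applied at the 2-leaf stage, and plants stayed in the greenhouse for twelve to sixteen days before scoring.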

sugar beet = assay: Test B pre/postemergence sugar beet; format: in vivo, Beta vulgaris
How it was run: as §1

wild oat = assay: Test B pre/postemergence wild oat; format: in vivo, Avena fatua
How it was run: as §1

velvetleaf = assay: Test B pre/postemergence velvetleaf; format: in vivo, Abutilon theophrasti
How it was run: as §1

rice = assay: Test B flood test rice; format: in vivo, Oryza sativa
How it was run: as §2

soybean = assay: Test B pre/postemergence soybean; format: in vivo, Glycine max
How it was run: as §1

crabgrass = assay: Test B pre/postemergence crabgrass; format: in vivo, Digitaria sanguinalis
How it was run: as §1

rape = assay: Test B pre/postemergence rape; format: in vivo, Brassica napus
How it was run: as §1

surinam grass = assay: Test B pre/postemergence surinam grass; format: in vivo, Brachiaria decumbens
How it was run: as §1

bedstraw = assay: Test B pre/postemergence bedstraw; format: in vivo, Galium aparine; conditions: Preemergence
How it was run: as §1

cocklebur = assay: Test B pre/postemergence cocklebur; format: in vivo, Xanthium strumarium
How it was run: as §1

blackgrass = assay: Test B pre/postemergence blackgrass; format: in vivo, Alopecurus myosuroides
How it was run: as §1

purple nutsedge = assay: Test B pre/postemergence purple nutsedge; format: in vivo, Cyperus rotundus
How it was run: as §1

morningglory = assay: Test B pre/postemergence morningglory; format: in vivo, Ipomoea hederacea
How it was run: as §1

smallflower flatsedge = assay: Test B flood test smallflower flatsedge; format: in vivo, Cyperus difformis
How it was run: as §2

giant foxtail = assay: Test B pre/postemergence giant foxtail; format: in vivo, Setaria faberii
How it was run: as §1

pigweed = assay: Test B pre/postemergence pigweed; format: in vivo, Amaranthus retroflexus
How it was run: as §1

duck salad = assay: Test B flood test duck salad; format: in vivo, Heteranthera limosa
How it was run: as §2

corn = assay: Test B pre/postemergence corn; format: in vivo, Zea mays
How it was run: as §1

[1] = Postemergence, Rate 125 g/ha, scale of 0 to 10 where 0 is no effect and 10 is complete control
[2] = Postemergence, Rate 250 g/ha, scale of 0 to 10, 0 is no effect, 10 is complete control
[3] = Postemergence, Rate 500 g/ha, scale of 0 to 10 where 0 is no effect and 10 is complete control
[4] = Preemergence, Rate 62 g/ha, scale 0 to 10 (0 no effect, 10 complete control)
[5] = Preemergence, Rate 125 g/ha, scale of 0 to 10 where 0 is no effect and 10 is complete control
[6] = Preemergence, Rate 500 g/ha, scale of 0 to 10 where 0 is no effect and 10 is complete control
[7] = Rate 62 g/ha, flood test species, Pre-emergence, visual evaluation after twelve to sixteen days
[8] = Rate 125 g/ha, under heading Pre-emergence, flood test species, visual evaluation after twelve to sixteen days
[9] = Rate 250 g/ha, Pre-emergence (flood test species), scale 0 to 10, 0 is no effect, 10 is complete control
[10] = Rate 500 g/ha, Pre-emergence section of Table B, 0 to 10 scale (0 no effect, 10 complete control)
[11] = Postemergence, Rate 62 g/ha, scale of 0 to 10, 0 is no effect, 10 is complete control

CC(=O)OCC(CCl)n1c(=O)on(C(=O)N(c2ccc(F)cc2)C(C)C)c1=O (centres unmarked) [Compound 596]
Plant response rating, Wheat (wheat; [1]): 0 | Wheat plant response rating (wheat; [2]): 0 | Plant response rating, Wheat (wheat; [3]): 0 | Wheat plant response rating (wheat; [4]): 0 | Wheat plant response rating (wheat; [5]): 0 | Plant response rating, Wheat (wheat; [6]): 0 | Plant response rating, Barnyardgrass (0 to 10 scale, 0 is no effect, 10 is complete control) (bamyardgrass; [7]): 0 | Barnyardgrass plant response rating (0 to 10 scale, 0 is no effect, 10 is complete control) (bamyardgrass; [8]): 0 | Barnyardgrass plant response rating (bamyardgrass; [9]): 0 | Barnyardgrass plant response rating (bamyardgrass; [10]): 0 | Plant response rating, Sugarbeets (sugar beet; [1]): 0 | Sugarbeets plant response rating (sugar beet; [2]): 0 | Plant response rating, Sugarbeets (sugar beet; [3]): 0 | Sugarbeets plant response rating (sugar beet; [4]): 0 | Sugarbeets plant response rating (sugar beet; [5]): 0 | Plant response rating, Sugarbeets (sugar beet; [6]): 0 | Plant response rating, Wild oats (wild oat; [1]): 0 | Wild oats plant response rating (wild oat; [2]): 0 | Plant response rating, Wild oats (wild oat; [3]): 0 | Wild oats plant response rating (wild oat; [4]): 0 | Wild oats plant response rating (wild oat; [5]): 0 | Plant response rating, Wild oats (wild oat; [6]): 0 | Plant response rating, Velvetleaf (velvetleaf; [1]): 0 | Velvetleaf plant response rating (velvetleaf; [2]): 0 | Plant response rating, Velvetleaf (velvetleaf; [3]): 0 | Velvetleaf plant response rating (velvetleaf; [4]): 0 | Velvetleaf plant response rating (velvetleaf; [5]): 0 | Plant response rating, Velvetleaf (velvetleaf; [6]): 0 | Plant response rating, Rice (0 to 10 scale, 0 is no effect, 10 is complete control) (rice; [7]): 0 | Rice plant response rating (0 to 10 scale, 0 is no effect, 10 is complete control) (rice; [8]): 0 | Rice plant response rating (rice; [9]): 0 | Rice plant response rating (rice; [10]): 0 | Plant response rating, Soybean (soybean; [1]): 2 | Soybean plant response rating (soybean; [2]): 2 | Plant response rating, Soybean (soybean; [3]): 3 | Soybean plant response rating (soybean; [4]): 0 | Soybean plant response rating (soybean; [5]): 0 | Plant response rating, Soybean (soybean; [6]): 0 | Crabgrass plant response rating (crabgrass; [11]): 0 | Plant response rating, Crabgrass (crabgrass; [1]): 0 | Crabgrass plant response rating (crabgrass; [2]): 0 | Plant response rating, Crabgrass (crabgrass; [3]): 2 | Crabgrass plant response rating (crabgrass; [4]): 0 | Crabgrass plant response rating (crabgrass; [5]): 0 | Plant response rating, Crabgrass (crabgrass; [6]): 6 | Rape plant response rating (rape; [11]): 0 | Plant response rating, Rape (rape; [1]): 0 | Rape plant response rating (rape; [2]): 0 | Plant response rating, Rape (rape; [3]): 0 | Rape plant response rating (rape; [4]): 0 | Rape plant response rating (rape; [5]): 0 | Plant response rating, Rape (rape; [6]): 0 | B. signalgrass plant response rating (surinam grass; [11]): 0 | Plant response rating, B. signalgrass (surinam grass; [1]): 0 | B. signalgrass plant response rating (surinam grass; [2]): 0 | Plant response rating, B. signalgrass (surinam grass; [3]): 0 | B. signalgrass plant response rating (surinam grass; [4]): 0 | B. signalgrass plant response rating (surinam grass; [5]): 0 | B. signalgrass plant response rating (0 to 10 scale, 0 is no effect, 10 is complete control) (surinam grass; Preemergence, Rate 250 g/ha): 0 | B. signalgrass plant response rating (surinam grass; [6]): 0 | Bedstraw plant response rating (bedstraw; Rate 62 g/ha, scale 0 to 10 (0 no effect, 10 complete control)): 0 | Bedstraw plant response rating (bedstraw; Rate 125 g/ha, scale of 0 to 10 where 0 is no effect and 10 is complete control): 0 | Bedstraw plant response rating (0 to 10 scale) (bedstraw; Rate 250 g/ha): 0 | Bedstraw plant response rating (bedstraw; Rate 500 g/ha, scale of 0 to 10 where 0 is no effect and 10 is complete control): 0 | Cocklebur plant response rating (cocklebur; [11]): 0 | Plant response rating, Cocklebur (cocklebur; [1]): 0 | Cocklebur plant response rating (cocklebur; [2]): 0 | Plant response rating, Cocklebur (cocklebur; [3]): 0 | Cocklebur plant response rating (cocklebur; [4]): 0 | Cocklebur plant response rating (cocklebur; [5]): 0 | Cocklebur plant response rating (0 to 10 scale) (cocklebur; Preemergence, Rate 250 g/ha): 0 | Plant response rating, Cocklebur (cocklebur; [6]): 0 | Blackgrass plant response rating (blackgrass; [11]): 0 | Plant response rating, Blackgrass (blackgrass; [1]): 0 | Blackgrass plant response rating (blackgrass; [2]): 0 | Plant response rating, Blackgrass (blackgrass; [3]): 0 | Blackgrass plant response rating (blackgrass; [4]): 0 | Blackgrass plant response rating (blackgrass; [5]): 0 | Blackgrass plant response rating (0 to 10 scale) (blackgrass; Preemergence, Rate 250 g/ha): 0 | Blackgrass plant response rating (blackgrass; [6]): 0 | Nutsedge plant response rating (purple nutsedge; [11]): 0 | Plant response rating, Nutsedge (purple nutsedge; [1]): 0 | Plant response rating, Nutsedge (purple nutsedge; [3]): 0 | Nutsedge plant response rating (purple nutsedge; [4]): 0 | Nutsedge plant response rating (purple nutsedge; [5]): 0 | Plant response rating, Nutsedge (purple nutsedge; [6]): 0 | Morningglory plant response rating (morningglory; [11]): 0 | Plant response rating, Morningglory (morningglory; [1]): 0 | Morningglory plant response rating (morningglory; [2]): 0 | Plant response rating, Morningglory (morningglory; [3]): 2 | Morningglory plant response rating (morningglory; [4]): 0 | Morningglory plant response rating (morningglory; [5]): 0 | Plant response rating, Morningglory (morningglory; [6]): 0 | Plant response rating, S. Flatsedge (0 to 10 scale, 0 is no effect, 10 is complete control) (smallflower flatsedge; [7]): 0 | S. Flatsedge plant response rating (0 to 10 scale, 0 is no effect, 10 is complete control) (smallflower flatsedge; [8]): 0 | S. Flatsedge plant response rating (smallflower flatsedge; [9]): 0 | S. Flatsedge plant response rating (smallflower flatsedge; [10]): 0 | Giant foxtail plant response rating (giant foxtail; [11]): 0 | Plant response rating, Giant foxtail (giant foxtail; [1]): 0 | Giant foxtail plant response rating (giant foxtail; [2]): 0 | Plant response rating, Giant foxtail (giant foxtail; [3]): 3 | Giant foxtail plant response rating (giant foxtail; [4]): 0 | Giant foxtail plant response rating (giant foxtail; [5]): 0 | Plant response rating, Giant foxtail (giant foxtail; [6]): 4 | Plant response rating, Redroot pigweed (pigweed; [1]): 0 | Redroot pigweed plant response rating (pigweed; [2]): 0 | Plant response rating, Redroot pigweed (pigweed; [3]): 0 | Redroot pigweed plant response rating (pigweed; [4]): 0 | Redroot pigweed plant response rating (pigweed; [5]): 0 | Plant response rating, Redroot pigweed (pigweed; [6]): 0 | Plant response rating, Ducksalad (0 to 10 scale, 0 is no effect, 10 is complete control) (duck salad; [7]): 0 | Ducksalad plant response rating (0 to 10 scale, 0 is no effect, 10 is complete control) (duck salad; [8]): 0 | Ducksalad plant response rating (duck salad; [9]): 0 | Ducksalad plant response rating (duck salad; [10]): 0 | Corn plant response rating (corn; [11]): 0 | Plant response rating, Corn (corn; [1]): 0 | Corn plant response rating (corn; [2]): 0 | Plant response rating, Corn (corn; [3]): 0 | Corn plant response rating (corn; [4]): 0 | Corn plant response rating (corn; [5]): 0 | Corn plant response rating (0 to 10 scale) (corn; Preemergence, Rate 250 g/ha): 0 | Plant response rating, Corn (corn; [6]): 0
